The subject of this assay is Human monocyte cell line THP-1. The assay can be described thus: Detection of THP-1 cell pyroptosis (Caspase-Glo 1 Inflammasome Assay). In kind it is cell-based. To be noted: 20 nM PMA 48 h, 1 μg/mL LPS, compound 3 h. The method, then: Human monocyte cell line THP-1 (ATCC® TB-202TM) was cultured in RPMI-1640 culture medium containing […], 1 mM pyruvic acid, 0.05 mM β-mercaptoethanol and 10% double antibody under the culture conditions of 37° C. and […].
Cell counting was performed, THP-1 cells were seeded into a 96-well plate at 50000 per well, and 20 nM PMA was added for inducing at 37° C./5% CO2 for 48 h. The culture medium was then discarded, and 100 μL of serum-free RPMI-1640 medium containing 1 μg/mL LPS was added. 5 μL of compound or solvent control was added and 3-fold diluted in gradient from a maximum concentration of 10 μM, and 10 gradient concentrations were set. The mixtures were incubated at 37° C./5% CO2 for 3 h. After the incubation, the mixtures were centrifuged at 300 g for 5 min, and the culture medium was discarded. Pyroptosis assay was performed according to specific steps described in instructions of Caspase-Glo® 1 Inflammasome Assay kit. IC50 was calculated using GraphPad Prism7.0 software.

Setting [1] is: Homo sapiens, THP-1, THP-1 pyroptosis.

Take `C[C@H](c1ccc2c(c1NC(=O)NS(=O)(=O)c1sc(C(C)(C)O)cc1C#N)CCC2)C1CC1` [Compound 63, (S)-3-cyano-N-((5-(1-cyclopropylethyl)-2,3-dihydro-1H-inden-4-yl)carbamoyl)-5-(2-hydroxypropan-2-yl)thiophene-2-sulfonamide]: under setting [1], the IC50 was 100 to 500 nM. On the same count and under the same terms, the same measure for `C[C@@H](c1ccc2c(c1NC(=O)NS(=O)(=O)c1sc(C(C)(C)O)cc1F)CCC2)C1CC1` [Compound 64, (R)-N-((5-(1-cyclopropylethyl)-2,3-dihydro-1H-inden-4-yl)carbamoyl)-3-fluoro-5-(2-hydroxypropan-2-yl)thiophene-2-sulfonamide]: 100 to 500 nM.

As to `C[C@H](c1ccc2c(c1NC(=O)NS(=N)(=O)c1ccc(C3(O)COC3)s1)CCC2)C1CC1` (stereo partly drawn) [Compound 65C, N-((5-((S)-1-cyclopropylethyl)-2,3-dihydro-1H-inden-4-yl)carbamoyl)-5-(3-hydroxyoxetan-3-yl)thiophene-2-sulfonimidamide], the 50% inhibitory concentration (IC50) under setting [1] was 100 to 500 nM. Same read-out and setting: the same measure for `C[C@@H](c1ccc2c(c1NC(=O)NS(=O)(=O)c1ccc(C3(O)CCOCC3)s1)CCC2)C1CC1` [Compound 68]: 100 to 500 nM; for `CC(C)c1cccc([C@@H](C)C2CC2)c1NC(=O)NS(=O)(=O)c1cc(C(C)(C)O)co1` [Compound 71, (S)-N-((2-(1-cyclopropylethyl)-6-isopropylphenyl)carbamoyl)-4-(2-hydroxypropan-2-yl)furan-2-sulfonamide]: 100 to 500 nM; for `CC(C)c1cccc([C@H](C)C2CC2)c1NC(=O)NS(=O)(=O)c1cc(C(C)(C)O)co1` [Compound 72]: 100 to 500 nM. Under setting [1], `C[C@@H](c1ccc2c(c1NC(=O)NS(=O)(=O)c1cc(C(C)(C)O)co1)CCC2)C1CCC1` [Compound 79, (R)-N-((5-(1-cyclobutylethyl)-2,3-dihydro-1H-inden-4-yl)carbamoyl)-4-(2-hydroxypropan-2-yl)furan-2-sulfonamide] had a half-inhibitory concentration (IC50) of 100 to 500 nM.

`C[C@H](c1ccc2c(c1NC(=O)NS(=O)(=O)c1cc(C(C)(C)O)co1)CCC2)C1CCC1` [Compound 81, (S)-N-((5-(1-cyclobutylethyl)-2,3-dihydro-1H-inden-4-yl)carbamoyl)-4-(2-hydroxypropan-2-yl)furan-2-sulfonamide] had an IC50 under setting [1] of 1000 to 5000 nM. On the same count and under the same terms, for `CC(C)(O)c1csc(S(=N)(=O)NC(=O)Nc2c(CC3CCC3)ccc3c2CCC3)c1` (stereo not shown) [Compound 83A, N-((5-(cyclobutylmethyl)-2,3-dihydro-1H-inden-4-yl)carbamoyl)-4-(2-hydroxypropan-2-yl)thiophene-2-sulfonimidamide] the value was at most 100 nM; for `CC(C)(O)c1coc(S(=O)(=O)NC(=O)Nc2c(C(C3CC3)C3CC3)ccc3c2CCC3)c1` [Compound 86, N-((5-(dicyclopropylmethyl)-2,3-dihydro-1H-inden-4-yl)carbamoyl)-4-(2-hydroxypropan-2-yl)furan-2-sulfonamide], 500 to 1000 nM. Compound `C[C@H](c1ccc2c(c1NC(=O)NS(=O)(=O)c1cnc(C(C)(C)O)s1)CCC2)C1CC1` [Compound 88, (S)-N-((5-(1-cyclopropylethyl)-2,3-dihydro-1H-inden-4-yl)carbamoyl)-2-(2-hydroxypropan-2-yl)thiazole-5-sulfonamide] gave an IC50 under setting [1] of 100 to 500 nM. The same measure, in the same setting: the same measure for `Cc1cc2c(c(NC(=O)NS(=O)(=O)c3cc(C(C)(C)O)co3)c1[C@H](C)C1CC1)CCC2` [Compound 90, (R)-N-((5-(1-cyclopropylethyl)-6-methyl-2,3-dihydro-1H-inden-4-yl)carbamoyl)-4-(2-hydroxypropan-2-yl)furan-2-sulfonamide]: 100 to 500 nM.

For the setting “THP-1 pyroptosis”, `Cc1ccc(S(=N)(=O)NC(=O)Nc2c(C(C)C)cccc2C(C)C)cc1` (stereo not shown) [Compound 92-1, RS- and SS-N-((2,6-diisopropylphenyl)carbamoyl)-4-methylbenzenesulfonimidamide, reference compound] registered an IC50 of over 10000 nM.

The values above are taken from patent publication US11976054B2, “Amide derivative and preparation method therefore and use thereof in medicine” (Chengdu Baiyu Pharmaceutical Co., Ltd., priority 2019, dated 2024).
